Measurements reported in patent publication EP2371816A1, “Aminocyclohexenone, their preparation and use as medicament against oxidative stress” (ABIOGEN PHARMA S.p.A., priority 2010, dated 2011).

Legend:
[1] = TEAC method (Trolox Equivalent Antioxidant Capacity Assay); details: ratio of gradient to gradient of reference (trolox); 37 °C, 650 nm, pH 4.5
From the text: This assay is used to measure the total antioxidant activity of pure substances, biological fluids and plant compounds and is based on the reaction of antioxidants with the cation radical ABTS^˙+ (2,2'-azinobis(3-ethylbenzothiazolin-6-sulphonate)). This cation radical is metastable and has to be generated just before the experiment by reacting ABTS with hydrogen peroxide in the presence of HRP.
This radical can be reduced, with consequent loss of absorbance, by an antioxidant whose scavenging capacity can be measured spectrophotometrically at 650 nm. The test is carried out at 37 °C and the results are obtained from a comparison with Trolox (a synthetic antioxidant and hydrophilic analogue of vitamin E).
The ABTS solution S1 was prepared as follows: • 20 mg of ABTS were added to 50 mM of citric acid buffer (40 ml) at pH=4.5 and to the resulting solution there was added an aqueous solution of HRP (4.4 mg, 400 µl) and an aqueous solution of H2O2 (10 µl of a 30% solution diluted with 16.3 ml of water).
For each of the compounds (2), (6) and (7), as synthesized above, there was prepared a 600 µM solution in water, methanol or DMSO according to its solubility, as well as a Trolox solution as reference.
Each solution was diluted to produce 6 solutions each at a concentration between 25 µM and 300 µM. From each of the diluted and divided solutions, there were withdrawn 20 µl to which 200 µl of solution S1 were then added.
The decrease in absorbance of each solution thus obtained was monitored at 650 nm until a stable value was reached (about 90 minutes).
For each set of 6 solutions and for the reference trolox solution, the absorption was given in graph form as a function of the amount of compound (nmol) in the solution. The gradient of the straight line obtained by linear interpolation was determined according to the least squares method. The TEAC value of each compound of the invention is given in the table below and is expressed as the ratio between the gradient of the resulting straight line and the gradient of the reference (trolox) straight line.

[2] = Acute toxicity study, intraperitoneal single dose (OECD guideline no. 420); type: in vivo; details: result in words, with reference to Example 13
Procedure: This study was carried out with the purpose of investigating the toxicity of a single dose of the listed compounds administered to ICR (CD-1) female mice. According to the current OECD guideline no.
The mice used were all female and were treated by intraperitoneal injection administration. The animals were observed individually and regularly for the first 4 hours and within 24 hours after administration, and then twice a day for the whole observation period. As soon as the animals were stabilized, observations at the weekend were undertaken once only during the day.
The evaluated parameters included the survival, body weight development, variations in skin and fur, changes in ocular, conjunctival and buccal mucous membranes, changes in activities of the respiratory, circulatory, autonomous and central nervous systems, changes in somatomotor activity and in behaviour.
Any appearance of tremors, convulsions, salivation, diarrhea, lethargy, drowsiness and coma were attentively and regularly monitored. At the end of the observation period, a post-mortem was carried out on all the animals.

[3] = pH at the semi-neutralization point of titration (pKa); type: physicochemical; details: titration with 0.1 N NaOH or HCl; for pKa: read-out: Acid dissociation constant: pKa
Procedure: The following equipment was used during the implementation of all the examples: • for melting point determination a Buchi B-540 instrument was used; • for pH determination at the semi-neutralization point of titration (pKa) a Mettler Toledo DL-50 instrument was used with a 0.1 N xNaOH or HCl solution; • the ^1H-NMR spectra were recorded at 300 MHz and the ^13C-NMR spectra were recorded at 75 MHz using a Varian Unity 300 instrument; • spectrophotometric measurements were carried out using a Lambda Perkin Elmer 15 UV/Vis spectrophotometer for the DPPH assay and a Wallac Victor 1420 multilabel counter spectrophotometer.

[4] = mouse, in vivo
Procedure: The ability of the compounds of the invention to penetrate the brain was investigated by measuring their brain/plasma (B/P) concentration ratio in mice following intraperitoneal administration.
Female CD-1 mice were used (n=3 for each time period) and received the compounds of the invention by intraperitoneal administration, in 25 mg/kg doses in a 0.5% NaHCO3 buffer (pH 8.3). At predefined intervals following said administration, i.e. 5, 15, 30 and 60 minutes, the mice were killed and both plasma and total brain tissue were collected.
Specifically, after anaesthesia with ether, the animals were bled by blood withdrawal from the abdominal aorta then immediately decapitated. The blood samples were collected into plasma separator tubes containing Li-Heparin as anticoagulant and centrifuged. The resulting plasma was then stored at -20 °C. The brain was rapidly removed from the cranium and weighed, subsequently frozen and stored at -20 °C before treatment by homogenization and HPLC analysis.
The plasma was thawed and mixed with an equal volume of the extraction solution. This extraction solution was a mixture of aqueous and organic solvents whose composition had been previously determined by HPLC undertaken for each analyte.
1 ml of solution was then extracted by adding 20 µl of 70% HClO4 then centrifuged at 15,500g for 5 minutes and injected into the HPLC.
Each brain was thawed and homogenized with the extraction solution to provide a final composition of 4 ml/1g of tissue by means of an Ultra-Turrax blender and sonicated for 5 minutes. After centrifugation of the homogenate at 15,500g for 5 minutes, the resulting solution was treated with HClO4, as indicated for the plasma.
Specific chromatographic conditions had been developed for each analyte, the calibration curve being constructed for plasma and brain homogenate.

[5] = tested on: cerebral oxidative stress induced in mice by doxorubicin; test: In vivo assay of cerebral oxidative stress induced in mice by doxorubicin; details: for Brain/BWi / CAT/pr / GPX/pr / GSH/pr / GST/pr / Prot. Hmg / Prot. Ox/pr / SOD/pr: % variation relative to the vehicle, 50 mg/kg IP x3 days (D = doxorubicin alone); for Brain/BWi / CAT/pr / GPX/pr / GSH/pr / GST/pr / Prot. Hmg / Prot. Ox/pr / SOD/pr / Mean % variation relative to the vehicle: healthy animals; for Mean % variation relative to the vehicle: 50 mg/kg IP days 0, 1 and 2, mean over all parameters, approximate safety index (D = doxorubicin alone)
Procedure: The assay was carried out on compounds (1) and (3)-(6) and on edaravone (E) as comparative compound.
10 mice were used for each treatment group. For each compound 50 mg/kg were administered intraperitoneally (IP) for three consecutive days (day 0, 1 and 2); half the animals (5) also received IP 16.7 mg/kg of doxorubicin immediately after the first treatment (day 0). On the day after the last administration (day 3) the animals were killed by neck dislocation and the brains were removed, weighed and frozen in liquid nitrogen.
For the analyses of oxidative stress, 100 mg/ml of brain homogenate was prepared in Hebe buffer (pH 7.4 EDTA/HEPES^(**)) containing a mixture of enzyme inhibitors (Leupeptin, Pepstatin, Aprotinin, BHA). • ^(*) Hypotonic Extraction Buffer • ^(**) 4-2-hydroxyethyl-1-piperazinyl-ethanesulphonic acid
The evaluation parameters were: • BrW/BWi: ratio between final brain weight and initial body weight (day 0); • Prot. Hmg: total proteins in the homogenate (BCA method, i.e. bicinchoninic acid); • Prot. Ox: oxidized proteins in the Hmg by means of a colorimetric method using […] (DNPH); • GSH: reduced glutathione in the supernatant (sn) of the Hmg, obtained after precipitation with metaphosphoric acid (MPA), by means of a colorimetric method using […] (DTNB); • CAT: catalase in the Hmg by a colorimetric method using potassium dichromate; • SOD: superoxide dismutase by a colorimetric method using SOD Reagent (xanthine, EDTA, nitroblue tetrazole, Na2CO3, BSA, i.e. bovine serum albumin); • GST: glutathione S-transferase in the supernatant by a colorimetric method using chlorodinitrobenzene (CDNB) and GSH; and • GPx: glutathione peroxidase in the supernatant after addition of GSH and tert butyl hydroperoxide (t-BuOOH), heating and precipitation with MPA; followed by GSH method with DTNB.
All the parameters, with the exclusion of Brain/BWi and Prot. Hmg, were normalized for total Hmg proteins (Table 3). The D value standard deviations and the % incidence relative to V are given in italics.
The mean % effect, on all the parameters simultaneously, of the triple treatment in the healthy animals, as mean percentage variation relative to the vehicle (table 4). This value is useful as an approximate safety index of the oxidative state of the brain, i.e. the capacity of the compounds of the invention not to alter cerebral homeostasis in healthy animals.
The effect of the tested compounds on the "oxidized" animals was given as % inhibition relative to the percentage variation due to doxorubicin alone. The effect of the compounds on the oxidized animals can be expressed both as a function of the values of the vehicle (healthy, vehicle only) and as a function of the value of its own control (healthy, compound only): • Vehicle: percentage [(Compound+D)/V]x100/[(V+D)/V]x100 • Its own: percentage [(Compound+D)/Compound]x100/[(V+D)/V]x100

[6] = % inhibition relative to variation due to doxorubicin alone, oxidized animals, as function of its own control
[7] = % inhibition relative to variation due to doxorubicin alone, oxidized animals, as function of vehicle

SMILES	TEAC [1]	toxicity evaluation in vivo (tolerability) [2]	bioavailability at the target site / crossing of the blood-brain barrier [4]	Brain/BWi [5]	CAT/pr [5]	GPX/pr [5]	GSH/pr [5]	GST/pr [5]	Prot. Hmg [5]	Prot. Ox/pr [5]	SOD/pr [5]	Mean % variation relative to the vehicle [5]	pKa [3]	other results
O=C1C=C(NN2CCCCC2)CC(c2ccccc2)C1 (stereo not drawn) [(2), 5-phenyl-3-(piperidin-1-ylamino)cyclohex-2-enone]	1.67	–	–	–	–	–	–	–	–	–	–	–	–	–
CC1(C)CC(=O)C=C(N(O)Cc2cccnc2)C1 [(4), 3-(hydroxy(pyridin-3-ylmethyl)amino)-5,5-dimethylcyclohex-2-enone]	–	well tolerated	particularly bioavailable, as well as able to cross the blood-brain barrier in effective amounts	-0.1%	-9.3%	0.1%	-0.2%	0.5%	1.2%	-10.3%	0.0%	0.0%	–	Acid dissociation constants: pKa1 [3]: 2.70; Acid dissociation constants: pKa2 [3]: 6.47; Brain/BWi its own [5, 6]: 56.5%; CAT/pr its own [5, 6]: -43.2%; GPX/pr its own [5, 6]: -6.1%; GSH/pr its own [5, 6]: 35.2%; GST/pr its own [5, 6]: -34.1%; Prot. Hmg its own [5, 6]: -38.6%; Prot. Ox/pr its own [5, 6]: 57.6%; SOD/pr its own [5, 6]: 73.4%; Brain/BWi vehicle [5, 7]: 79.7%; CAT/pr vehicle [5, 7]: 9.1%; GPX/pr vehicle [5, 7]: -8.1%; GSH/pr vehicle [5, 7]: 39.2%; GST/pr vehicle [5, 7]: -45.1%; Prot. Hmg vehicle [5, 7]: 1.2%; Prot. Ox/pr vehicle [5, 7]: -106.4%; SOD/pr vehicle [5, 7]: 73.4%
CC1(C)CC(=O)C=C(N(O)Cc2ccccn2)C1 [(5), 3-(hydroxy(pyridin-2-ylmethyl)amino)-5,5-dimethylcyclohex-2-enone]	–	well tolerated	particularly bioavailable, as well as able to cross the blood-brain barrier in effective amounts	-3.3%	-6.2%	1.5%	-0.9%	3.1%	0.7%	-5.5%	-2.3%	-0.4%	4.2	–
CC1(C)CC(=O)C=C(NN2CCOCC2)C1 [(7), 5,5-dimethyl-3-(morpholinoamino)cyclohex-2-enone]	0.8	well tolerated	particularly bioavailable, as well as able to cross the blood-brain barrier in effective amounts	–	–	–	–	–	–	–	–	–	2.94	–
COc1cccc2c1C(=O)c1c(O)c3c(c(O)c1C2=O)C[C@@](O)(C(=O)CO)C[C@@H]3O[C@H]1C[C@H](N)[C@H](O)[C@H](C)O1 [D, doxorubicin, reference compound]	–	–	–	–	-13.2%	-9.9%	-12.5%	-9.1%	8.3%	17.2%	-14.3%	-11.4%	–	Brain/BWi ([5]; 50 mg/kg): -6.9%; Brain/BWi ([5]; listed as Doxo, 50 mg/kg): 6.9%
O=C1O[C@H]([C@@H](O)CO)C(O)=C1O [vitamin C, reference compound]	0.9	–	–	–	–	–	–	–	–	–	–	–	–	–
